Experiment [1] deals with T1, PPO2 R128M ΔG210 (Amaranthus tuberculatus, UniProt Q0NZW9, DEL210-210/R128M).
T1 sequence (Q0NZW9 with tags, fused parts or gaps R128M/DEL210-210): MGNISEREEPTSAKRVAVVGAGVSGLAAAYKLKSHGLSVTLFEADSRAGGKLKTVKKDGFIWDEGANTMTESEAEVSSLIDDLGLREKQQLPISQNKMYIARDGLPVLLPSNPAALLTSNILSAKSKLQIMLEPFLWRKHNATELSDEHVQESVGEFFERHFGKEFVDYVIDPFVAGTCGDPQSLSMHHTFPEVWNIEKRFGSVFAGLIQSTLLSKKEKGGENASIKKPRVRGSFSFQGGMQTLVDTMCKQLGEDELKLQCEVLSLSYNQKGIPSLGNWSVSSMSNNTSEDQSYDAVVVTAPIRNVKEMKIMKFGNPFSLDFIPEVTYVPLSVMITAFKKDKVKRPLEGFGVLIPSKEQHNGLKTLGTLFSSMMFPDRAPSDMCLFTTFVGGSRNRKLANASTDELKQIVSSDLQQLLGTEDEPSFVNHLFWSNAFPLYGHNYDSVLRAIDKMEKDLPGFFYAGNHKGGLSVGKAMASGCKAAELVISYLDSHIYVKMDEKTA
Nature of the experiment: biochemical. In kind it is biochemical.

The target of experiment [2] is T2, PPO2 R128M ΔG210 in Escherichia coli hemG (Amaranthus tuberculatus, UniProt Q0NZW9, DEL210-210/R128M, cells depend on it).
T2 sequence (Q0NZW9 with tags, fused parts or gaps R128M/DEL210-210): T1 sequence (Q0NZW9 with tags, fused parts or gaps R128M/DEL210-210)
Format: cell-based. The following applies: read-out: IC50 (E. coli hemG growth).

Experiment [3] addresses T3, PPO2 R128T ΔG210 (Amaranthus tuberculatus, UniProt Q0NZW9, DEL210-210/R128T).
T3 sequence (Q0NZW9 with tags, fused parts or gaps R128T/DEL210-210): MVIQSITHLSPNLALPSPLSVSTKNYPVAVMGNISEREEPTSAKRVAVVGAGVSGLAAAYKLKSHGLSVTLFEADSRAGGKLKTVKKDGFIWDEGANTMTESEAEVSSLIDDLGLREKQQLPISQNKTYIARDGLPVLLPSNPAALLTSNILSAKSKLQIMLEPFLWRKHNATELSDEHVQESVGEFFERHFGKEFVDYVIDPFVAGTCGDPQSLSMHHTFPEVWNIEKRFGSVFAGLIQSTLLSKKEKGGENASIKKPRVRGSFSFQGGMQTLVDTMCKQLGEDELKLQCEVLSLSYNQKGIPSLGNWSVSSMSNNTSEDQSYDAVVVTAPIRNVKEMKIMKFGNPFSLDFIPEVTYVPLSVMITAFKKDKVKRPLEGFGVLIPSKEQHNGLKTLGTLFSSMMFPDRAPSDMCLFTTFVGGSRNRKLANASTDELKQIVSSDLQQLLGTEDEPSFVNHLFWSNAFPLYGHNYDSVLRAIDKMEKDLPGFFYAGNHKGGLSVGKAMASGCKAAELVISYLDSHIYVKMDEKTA
Format: biochemical.

For experiment [4], the target named is R128(X) ΔG210 double-mutant enzymes. Format: biochemical, Amaranthus tuberculatus.
In experiment [5] the target is T4, PPO2 ΔG210 (Amaranthus tuberculatus, UniProt Q0NZW9, DEL210-210).
T4 sequence (Q0NZW9 with tags, fused parts or gaps DEL210-210): T3 sequence (Q0NZW9 with tags, fused parts or gaps R128T/DEL210-210) with T128R
In kind it is biochemical.

The target in experiment [6] is T5, PPO2 R128I ΔG210 in Escherichia coli hemG (Amaranthus tuberculatus, UniProt Q0NZW9, DEL210-210/R128I, cells depend on it).
T5 sequence (Q0NZW9 with tags, fused parts or gaps R128I/DEL210-210): T1 sequence (Q0NZW9 with tags, fused parts or gaps R128M/DEL210-210) with M98I
Format: cell-based. The following applies: read-out: IC50 (E. coli hemG growth).

Setting [7] is: read-out: IC50 (over R128(X) ΔG210 mutants).

Numbering of substitutions follows the chain as printed. Like-named read-outs stand apart in the source and are kept apart here.

With `C#CCN1C(=O)C(F)(F)Oc2cc(F)c(-n3c(=O)n(C)c(=S)n(C)c3=O)cc21` [Trifludimoxazin, trifludimoxazin], the IC50 in experiment [1] is 0.182 µM; in experiment [2], 0.0674 µM; in experiment [3], 0.0748 µM; in experiment [4] (setting [7]), 1 to 100 nM; in experiment [5], 1.83 nM; in experiment [6], 0.0829 µM. In addition, the Resistance factor in experiment [1] is 743; in experiment [3] it was 305; in experiment [5], 7.

Take `CCOC(=O)C(C)OC(=O)c1cc(Oc2ccc(C(F)(F)F)cc2Cl)ccc1[N+](=O)[O-]` (centres unmarked) [Lactofen, lactofen]: the IC50 is above 10 µM in experiment [1]; above 10 µM in experiment [2]; 3.92 µM in experiment [3]; above 10000 nM in experiment [4] (read-out: IC50 values); 100 to 1000 nM in experiment [4] (read-out: IC50 values (range over variants)); 544 nM in experiment [5]. Further, in experiment [6], the concentration for half-maximal inhibition (IC50) was above 10 µM.

`CS(=O)(=O)NC(=O)c1cc(Oc2ccc(C(F)(F)F)cc2Cl)ccc1[N+](=O)[O-]` [Fomesafen, fomesafen]: the half-maximal inhibitory concentration (IC50) in experiment [1] was above 10 µM; in experiment [3] it was above 10 µM; in experiment [4] (setting [7]) it was below 10000 nM; in experiment [5], above 10000 nM.

Consider `CC(C)N(C)S(=O)(=O)NC(=O)c1cc(-n2c(=O)cc(C(F)(F)F)n(C)c2=O)c(F)cc1Cl` [Saflufenacil, saflufenacil], for which the half-inhibitory concentration (IC50) in experiment [1] is above 10 µM; in experiment [2], above 10 µM; in experiment [3], above 10 µM; in experiment [4] (setting [7]), below 10000 nM; in experiment [5], 2040 nM; in experiment [6], above 10 µM.

Values taken from publication PMC10092844, “Inhibition profile of trifludimoxazin towards PPO2 target site mutations” (Pest Management Science, 2022).
